Reference: US10766869B2, “Triazoles for the treatment of demyelinating dieases” (Vertex Pharmaceuticals Incorporated, priority 2015, dated 2020)
Like-named read-outs stand apart in the source and are kept apart here.

System: primary rat mixed cortical cells
Assay: In vitro myelination assay (MBP positive myelin strands, fold myelin pixels above background)
Format: cell-based
Details: for fold induction at 1 µM / fold induction at 10 µM: Rattus norvegicus
Procedure, shortened: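 Read-out is total MBP-positive myelin strand pixels per well, detected by custom ridge-tracing software and reported as fold over untreated baseline. Primary P1 rat mixed cortical cells received compound (1.0 or 10.0 μM) for 14 days, with medium half-replaced on days 6 and 10. Standard deviation was taken across all replicates.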

[1] = 1.0 μM compound, relative to baseline of no added compound, read-out: Fold myelin pixels above background, 1.0 μM
[2] = 10.0 μM compound, relative to baseline of no added compound, read-out: Fold myelin pixels above background, 10.0 μM
[3] = 1.0 μM compound, relative to baseline of no added compound, read-out: Fold myelin pixels above background
[4] = 10.0 μM compound, relative to baseline of no added compound, read-out: Fold myelin pixels above background
[5] = 1.0 μM compound, read-out: Fold myelin pixels above background relative to baseline of no added compound
[6] = 10.0 μM compound, read-out: Fold myelin pixels above background relative to baseline of no added compound

| Compound | fold induction at 1 µM [1] | fold induction at 10 µM [2] | fold induction at 1 µM [3] | fold induction at 10 µM [4] | other results |
| --- | --- | --- | --- | --- | --- |
| Cc1cc(Nc2ncn(-c3ccnc(F)c3)n2)cc(NC2CCN(C3COC3)C2)c1 (stereo not shown) [Compound 249, N3-[1-(2-fluoro-4-pyridyl)-1,2,4-triazol-3-yl]-5-methyl-N1-[1-(oxetan-3-yl)pyrrolidin-3-yl]benzene-1,3-diamine] | 10 to 100 | ≤ 1 |  |  |  |
| Cc1cc(Nc2ncn(-c3cc(F)cc(F)c3)n2)cc([C@@]2(C)CNC(=O)O2)c1 (stereo in doubt) [Compound 658, 5-[3-[[1-(3,5-difluorophenyl)-1,2,4-triazol-3-yl]amino]-5-methyl-phenyl]-5-methyl-oxazolidin-2-one] |  |  | 10 to 100 | ≤ 1 |  |
| COCC1CCCN(c2cc(C)cc(Nc3ncn(-c4cc(F)cc(F)c4)n3)n2)C1 (stereo not shown) [Compound 786, N-[1-(3,5-difluorophenyl)-1,2,4-triazol-3-yl]-6-[3-(methoxymethyl)-1-piperidyl]-4-methyl-pyridin-2-amine] |  |  | 1 to 10 | ≤ 1 |  |
| CCc1cc(Nc2ncn(-c3cccc(C(F)F)c3)n2)cc(N2CCN(C3COC3)CC2)c1 [Compound 736, 1-[3-(difluoromethyl)phenyl]-N-[3-ethyl-5-[4-(oxetan-3-yl)piperazin-1-yl]phenyl]-1,2,4-triazol-3-amine] |  |  | 10 to 100 | ≤ 1 |  |
| FC(F)(F)c1cc(Nc2ncn(-c3cnccn3)n2)cc(N2CCN(C3COC3)CC2)c1 [Compound 514, N-[3-[4-(oxetan-3-yl)piperazin-1-yl]-5-(trifluoromethyl)phenyl]-1-pyrazin-2-yl-1,2,4-triazol-3-amine] |  |  | 10 to 100 | 100 to 1000 |  |
| Cc1cc(Nc2ncn(-c3ccccc3)n2)cc(C2CCN(C)CC2)c1 [Compound 333, N-[3-methyl-5-(1-methyl-4-piperidyl)phenyl]-1-phenyl-1,2,4-triazol-3-amine] | 1000 to 10000 | ≤ 1 |  |  |  |
| Cc1cc(Nc2ncn(-c3ccccn3)n2)cc(N2CCN(C)CC2)c1 [Compound 138, N-[3-methyl-5-(4-methylpiperazin-1-yl)phenyl]-1-(2-pyridyl)-1,2,4-triazol-3-amine] | 10 to 100 | 100 to 1000 |  |  |  |
| Cc1cc(Nc2ncn(-c3cc(F)cc(F)c3)n2)cc(C2(O)CCN(C3COC3)C2)c1 (stereo not shown) [Compound 416, 3-[3-[[1-(3,5-difluorophenyl)-1,2,4-triazol-3-yl]amino]-5-methyl-phenyl]-1-(oxetan-3-yl)pyrrolidin-3-ol] |  |  | 100 to 1000 | 10 to 100 |  |
| Cc1cc(NCC(=O)N2CCCC2)cc(Nc2ncn(-c3cc(F)cc(F)c3)n2)c1 [Compound 993, 2-[3-[[1-(3,5-difluorophenyl)-1,2,4-triazol-3-yl]amino]-5-methyl-anilino]-1-pyrrolidin-1-yl-ethanone] |  |  |  |  | fold induction at 1 µM [5]: 1 to 10; fold induction at 10 µM [6]: 10 to 100 |
| COc1cc(Nc2ncn(-c3cccc(C(F)(F)F)c3)n2)nc(N2CCN(C3COC3)CC2)c1 [Compound 610, 4-methoxy-6-[4-(oxetan-3-yl)piperazin-1-yl]-N-[1-[3-(trifluoromethyl)phenyl]-1,2,4-triazol-3-yl]pyridin-2-amine] |  |  | 1 to 10 | 1 to 10 |  |
| COc1cc(-n2cnc(Nc3cc(C)cc(N4CCN(C5COC5)CC4)c3)n2)ncn1 [Compound 254, 1-(6-methoxypyrimidin-4-yl)-N-[3-methyl-5-[4-(oxetan-3-yl)piperazin-1-yl]phenyl]-1,2,4-triazol-3-amine] | ≤ 1 | 100 to 1000 |  |  |  |
| Cc1cc(Nc2ncn(-c3cc(F)cc(F)c3)n2)cc(N2CCN(C3CC(F)(F)C3)CC2)c1 [Compound 453, N-[3-[4-(3,3-difluorocyclobutyl)piperazin-1-yl]-5-methyl-phenyl]-1-(3,5-difluorophenyl)-1,2,4-triazol-3-amine] |  |  | 10 to 100 | 1000 to 10000 |  |
| Cc1cc(Nc2ncn(-c3ccccc3)n2)c(F)c(OC2CCOC2)c1 (single isomer, unassigned) [Compound 1002, N-(2-fluoro-5-methyl-3-tetrahydrofuran-3-yloxy-phenyl)-1-phenyl-1,2,4-triazol-3-amine] |  |  |  |  | Fold myelin pixels above background relative to baseline of no added compound (1.0 μM compound): +++ (>100 to 1000x); fold induction at 10 µM [6]: 10 to 100 |
| Cc1cc(Nc2ncn(-c3cccc(F)c3F)n2)cc(N2CCN(C3COC3)CC2)c1 [Compound 445, 1-(2,3-difluorophenyl)-N-[3-methyl-5-[4-(oxetan-3-yl)piperazin-1-yl]phenyl]-1,2,4-triazol-3-amine] |  |  | 10 to 100 | 10 to 100 |  |
| Cc1cc(Nc2ncn(-c3cc(F)cc(F)c3)n2)cc(OC2CCCN(C3COC3)C2)c1 (stereo not shown) [Compound 620, 1-(3,5-difluorophenyl)-N-[3-methyl-5-[[1-(oxetan-3-yl)-3-piperidyl]oxy]phenyl]-1,2,4-triazol-3-amine] |  |  | 10 to 100 | 1 to 10 |  |
| Cc1cc(Nc2ncn(-c3cc(F)cc(F)c3)n2)cc(C2CN(C3COC3)CC(C)O2)c1 (stereo not shown) [Compound 663, 1-(3,5-difluorophenyl)-N-[3-methyl-5-[6-methyl-4-(oxetan-3-yl)morpholin-2-yl]phenyl]-1,2,4-triazol-3-amine] |  |  | 10 to 100 | ≤ 1 |  |
| Fc1cc(F)cc(-n2cnc(Nc3cc(Br)cc(N4CCOCC4)c3)n2)c1 [Compound 346, N-(3-bromo-5-morpholino-phenyl)-1-(3,5-difluorophenyl)-1,2,4-triazol-3-amine] | 1000 to 10000 | 1000 to 10000 |  |  |  |
| Cc1cc(Nc2ncn(-c3cc(F)cc(F)c3)n2)cc([C@@]2(C)CN(C)C(=O)O2)c1 (single isomer, unassigned) [Compound 611] |  |  | 10 to 100 | 1 to 10 |  |
| Cc1cc(Nc2ncn(-c3cc(F)cc(F)c3)n2)cc(N2C[C@@H]3C[C@H]2CO3)c1 [Compound 822, 1-(3,5-difluorophenyl)-N-[3-methyl-5-[(1S,4S)-2-oxa-5-azabicyclo[2.2.1]heptan-5-yl]phenyl]-1,2,4-triazol-3-amine] |  |  |  |  | fold induction at 1 µM [5]: 10 to 100; fold induction at 10 µM [6]: ≤ 1 |
| Cc1cc(Nc2ncn(-c3cccnc3)n2)cc(NC2CCN(C3COC3)CC2)c1 [Compound 342, 5-methyl-N1-[1-(oxetan-3-yl)-4-piperidyl]-N3-[1-(3-pyridyl)-1,2,4-triazol-3-yl]benzene-1,3-diamine] | 1000 to 10000 | 10 to 100 |  |  |  |
| Cc1cc(Nc2ncn(-c3cc(F)cc(F)c3)n2)nc(N2CCCC(F)C2)c1 (stereo not shown) [Compound 568, N-[1-(3,5-difluorophenyl)-1,2,4-triazol-3-yl]-6-(3-fluoro-1-piperidyl)-4-methyl-pyridin-2-amine] |  |  | 1 to 10 | ≤ 1 |  |
| Cc1cc(NCC2(C(=O)N(C)C)CCCC2)cc(Nc2ncn(-c3cc(F)cc(F)c3)n2)c1 [Compound 938, 1-[[3-[[1-(3,5-difluorophenyl)-1,2,4-triazol-3-yl]amino]-5-methyl-anilino]methyl]-N,N-dimethyl-cyclopentanecarboxamide] |  |  |  |  | fold induction at 1 µM [5]: 1 to 10; fold induction at 10 µM [6]: ≤ 1 |
| Cc1cc(Nc2ncn(-c3ccccc3)n2)cc(C2=CCN(C3COC3)C2)c1 [Compound 160, N-[3-methyl-5-[1-(oxetan-3-yl)-2,5-dihydropyrrol-3-yl]phenyl]-1-phenyl-1,2,4-triazol-3-amine] | 1000 to 10000 | ≤ 1 |  |  |  |
| Cc1cc(Nc2ncn(-c3cccc(F)c3)n2)c(F)c(OC2CCOC2)c1 (single isomer, unassigned) [Compound 886, N-(2-fluoro-5-methyl-3-tetrahydrofuran-3-yloxy-phenyl)-1-(3-fluorophenyl)-1,2,4-triazol-3-amine] |  |  |  |  | Fold myelin pixels above background relative to baseline of no added compound (1.0 μM compound): ++ (>10 to 100x); Fold myelin pixels above background relative to baseline of no added compound (10.0 μM compound): + (>1 to 10x) |
| Cc1cc(NC2CCOCC2)cc(Nc2ncn(-c3cc(F)cc(F)c3)n2)c1F [Compound 1021, N3-[1-(3,5-difluorophenyl)-1,2,4-triazol-3-yl]-4-fluoro-5-methyl-N1-tetrahydropyran-4-yl-benzene-1,3-diamine] |  |  |  |  | fold induction at 1 µM [5]: 1 to 10; fold induction at 10 µM [6]: ≤ 1 |
| Cc1cc(Nc2ncn(-c3cc(F)cc(F)c3)n2)cc([C@]2(O)CCN(C3COC3)C2)c1 [Compound 487, (3R)-3-[3-[[1-(3,5-difluorophenyl)-1,2,4-triazol-3-yl]amino]-5-methyl-phenyl]-1-(oxetan-3-yl)pyrrolidin-3-ol] |  |  | 100 to 1000 | 1 to 10 |  |
| Cc1cc(Nc2ncn(-c3cc(F)cc(F)c3)n2)cc(N2CCN(C3COC3)CC2=O)c1 [Compound 67, 1-[3-[[1-(3,5-difluorophenyl)-1,2,4-triazol-3-yl]amino]-5-methyl-phenyl]-4-(oxetan-3-yl)piperazin-2-one] | 1 to 10 | 10 to 100 |  |  |  |
| Cc1cc(Nc2ncn(-c3cccc(C(F)(F)F)c3)n2)cc(N2CCN(C3COC3)CC2)c1 [Compound 287, N-[3-methyl-5-[4-(oxetan-3-yl)piperazin-1-yl]phenyl]-1-[3-(trifluoromethyl)phenyl]-1,2,4-triazol-3-amine] | 100 to 1000 | 100 to 1000 |  |  |  |
| Cc1cc(N2CCN(C3COC3)CC2)cc(Nc2ncn(-c3cc(F)cc(F)c3)n2)c1F [Compound 587, 1-(3,5-difluorophenyl)-N-[2-fluoro-3-methyl-5-[4-(oxetan-3-yl)piperazin-1-yl]phenyl]-1,2,4-triazol-3-amine] |  |  | 1 to 10 | 10 to 100 |  |
